Measured values: patent publication US20100028417A1, “USE OF SUBSTITUTED GLYCERIN DERIVATIVES FOR PRODUCING A PHARMACEUTICAL PREPARATION” (priority 2006, published 2010)

Key:
cytochrome P450 [1] = assay: in vitro inhibition of cytochrome P450 activity; format: biochemical
cytochrome P450 [2] = assay: in vivo activity (inhibition of cytochrome P450 activity)

inhibition of cytochrome P450 activity (cytochrome P450 [1]) | SMILES | in vivo activity compared with 10-undecinyl acid (cytochrome P450 [2])
comparably high inhibition | C#CCCCCCCCCC(=O)O [10-undecinyl acid] | –
comparably high inhibition | C#CCCCCCCCCC(C)(C)C(=O)O [2,2-dimethyl-11-dodecinyl acid] | far superior in vivo
